Reference: patent EP0829477A1, “NOVEL PHYSIOLOGICALLY ACTIVE NA23063 ANALOGUES, PROCESS FOR PRODUCING THE SAME AND USE OF THE SAME” (NIPPON KAYAKU KABUSHIKI KAISHA, priority 1995, dated 1996)

How the values were obtained:
Bovine Phosphodiesterase = test: Phosphodiesterase inhibiting activity (cAMP substrate, remaining cAMP measured by HPLC); assay type: biochemical; settings: for IC50: inhibition of phosphodiesterase, from Table 2 data, read-out: IC 50 values
Method: Fifity g of the respiratory smooth muscle of a sacrificed cow was cut into pieces with scissors and a knife, then suspended in 2 mM EDTA-containing 20 mM Tris buffer (pH 7.4) of 5 times by volume the pieces, and homogenized with a polytron homogenizer to prepare a crude phosphodiesterase liquid. This was centrifuged at 10,000 x g for 20 minutes to collect the supernatant, which is a soluble, crude phosphodiesterase liquid. This was put into a Q-Sepharose fast-flow column (100 ml), washed with a buffer, and then eluted with sodium acetate having a gradient concentration of from 50 mM to 1 M. The phosphodiesterase-containing active fraction eluted with 0.7 M sodium acetate was collected.
To determine its phosphodiesterase activity, the enzyme was reacted with a substrate, 3',5'-cyclic adenosine monophosphate (cAMP, manufactured by Sigma Co. in US). After the reaction, the remaining cAMP was measured through high-performance liquid chromatography.
0.02 mg/ml of cAMP, 2.5 mM dithiothreitol, 6 mM magnesium chloride, 50 mM Tris buffer (pH 8.0), 1 µl of the phosphodiesterase liquid prepared above, and a varying amount of the compound of the invention were put into plastic tubes having a volume of 0.3 ml, to which was added water to have a final volume of 200 µl. The mixture was stirred, and incubated at 37°C for 60 minutes. 20 µl of an aqueous solution of 200 mM tetraethylenediamine was added to each tube to stop the reaction. 20 µl of the resulting reaction mixture was subjected to high-performance liquid chromatography (ODS column of 3.9 mm⌀ x 150 mm, manufactured by Waters Co. in US), through which the remaining cAMP was measured. From the data, obtained was the activity of the compound of the invention of inhibiting the enzyme phosphodiesterase, as in Table 2.

guinea pig oxyphiles = test: Inhibition of activation of oxyphiles (PAF-induced release of active oxygen, luminol chemiluminescence); assay type: cell-based, Hartley guinea pigs; settings: Cavia porcellus, 5 min; PAF stimulation, chemiluminescence for 5 minutes; read-out: IC50 (x 10^-6 M)
Method: One mg of polymyxin B (manufactured by Sigma Co.) was intra-abdominally administered to Hartley guinea pigs (6-week age). The chemical was administered to the animals once a week, for 6 to 8 weeks. After the final administration of the chemical polymyxin B, 50 ml of PBS (phosphate-buffered saline) was injected into the abdomen of each guinea pig, and the abdominal cells were collected. These were centrifuged at 800 rpm for 5 minutes to collect the precipitate of abdominal infiltrated cells. The precipitated cells were suspended in 1 ml of 40 % Ficol solution (40 % Ficol (manufactured by Pharmacia Co.) in HBSS (Hanks' […] salt solution)), and stratified over a discontinuous density gradient of Ficol (40 to 90 %). This was centrifuged at 1500 rpm for 40 minutes to collect the oxyphile fraction. This operation generally produced oxyphiles having a purity of 99 % or higher. The cells were washed two times with an RPMI1640 medium (0.2 % BSA (bovine serum albumin), manufactured by Boehringer Mannheim Co.), then suspended to have a predetermined cell concentration, and used in the intended experiments. (B) Effect of Inactivating Oxyphiles (Effect of inhibiting the activity of guinea pig oxyphiles to release active oxygen):
2 µl of each chemical to be tested and 180 µl of the cell suspension were added to each well of a 96-well multiwell plate (white plate for chemiluminometry) which had been previously kept at 37°C, and kept therein at 37°C for 10 minutes. After thus kept, 20 µl of PAF (platelet activating factor) (x -10^-6 M) and 20 µl of a luminol solution were added thereto, and immediately the intensity of chemiluminescence of the system was measured, using […]. The data of chemiluminescence for 5 minutes were obtained, from which was calculated the 50 % inhibition concentration of the compound tested (IC50).

[1] = Solubility of the isolated substances in solvents; assay type: physicochemical; settings: qualitative; for Solubility: various solvents
Method: These pure NA23063A, NA23063B1, NA23063B2, NA23063C and NA23063D were tested for their appearance, molecular weight, solubility, Rf value in silica gel thin-layer column chromatography, UV absorption spectrum, IR absorption spectrum, ^1H-NMR spectrum, and ^13C-NMR spectrum. The physicochemical properties of NA23063A, B1, B2, C and D thus obtained have been shown hereinabove.

bronchial smooth muscle = test: Inhibition of contraction of bronchial smooth muscle (histamine-contracted tracheal strips in an organ bath); set-up: species or system Hartley guinea pigs; settings: 10 µg/ml; contraction with 10 µM histamine = 100 %, relaxation with papaverine = 0 %
Method: The tracheae were taken out of male Hartley guinea pigs having a body weight of from 400 to 500 g. These were cut off at the cartilage opposite to the smooth muscle, and sliced into small pieces having a width of 1 mm. Five of these pieces were bound with silk thread into one bundle, of which the both ends were ligated with machine cotton. This was then suspended in an organ bath with applying thereto a tension of 0.5 g. The temperature of the bath was 37°C, and the bath contained a nutrient liquid of Krebs-Hanseleit buffer (118 mM NaCl, 4.6 mM KCl, 1.1 mM MgSO4·7H2O, 1.8 mM CaCl2·2H2O, 24.9 mM NaHCO3, 1.0 mM KH2PO4·2H2O, 11.1 mM glucose). To the nutrient liquid, added was 5 µM indomethacin. The bath was well aerated with a mixed gas of 95 % O2 + 5 % CO2. The suspended tissue was incubated in the organ bath for about 2 hours for habituation in the external environment. Then, this was contracted with 10 µM histamine. After the contraction was stabilized, NA23063D was added to the bath to have a concentration of 0.1, 0.3, 1.0, 3.0, 10 and 30 µg/ml. The reaction in the bath comprising the varying amount of NA23063D was continued until the relaxation of the tissue became stabilized. When no relaxation was admitted in 10 minutes after the addition of the chemical, NA23063D, the concentration of the chemical was increased to the next stage. […]

[2] = tested on: respiratory tract resistance; test: Inhibition of immediate allergic respiratory stenosis in ovalbumin-sensitized asthmatic animal models; assay type: in vivo, Brown-Norway (BN) rats; settings: intravenous administration of 30 mg/kg, rat models, relative to control maximum resistance after antigen
Method: An antigen ovalbumin (OA) was administered to male Brown-Norway (BN) rats to prepare actively-sensitized animal models. To sensitize the animals, 1 ml of the antigen solution (100 mg/ml of Al(OH)3 and 1 mg/ml of OA in aqueous 0.9 % NaCl solution) was subcutaneously administered to the back of each rat. On the other hand, inactivated cells of Bordetella pertussis were suspended in an aqueous solution of 0.9 % NaCl to have a concentration of 1.0 x 10^10 cells/ml. 0.25 ml of the cell suspension was intra-abdominally administered to each rat along with the antigen sensitization. The administration was repeated three times in all, on the 1st, 7th and 14th days. […]
Those actively-sensitized BN rats were anesthetized with sodium pentobarbiturate (50 mg/kg, i.p.), into which was inserted a polyvinyl chloride tube cannula through the respiratory tract. Each rat was purged with air through the cannula, and the respiratory tract resistance was monitored. […] In addition, an additional cannula was inserted into the left common carotid artery of each rat, through which the blood pressure and the heart beat of the rat being tested were monitored. […] On the basis of the time (0, zero) at which the antigen was challenged, the variation (increase or decrease) in the respiratory tract resistance of each rat was recorded at regular intervals before and after the administration of the antigen. […]

Row | Solubility in dimethylsulfoxide (DMSO) [1] | Compound | Inhibiting Activity (%) (Bovine Phosphodiesterase; Concentration 0.78 µg/ml) | Inhibiting Activity (%) (Bovine Phosphodiesterase; Concentration 1.56 µg/ml) | Inhibiting Activity (%) (Bovine Phosphodiesterase; Concentration 3.13 µg/ml) | Inhibiting Activity (%) (Bovine Phosphodiesterase; Concentration 6.25 µg/ml) | IC50 (Bovine Phosphodiesterase) | IC50 (guinea pig oxyphiles) | Solubility [1] | Inhibiting Activity (%) (Bovine Phosphodiesterase; Concentration 0.39 µg/ml) | relaxation of the bronchial smooth muscle (bronchial smooth muscle) | % inhibition (decrease in the respiratory tract resistance) [2]
1 |  | O=c1c(-c2ccc(Oc3cc(-c4coc5cc(O)cc(O)c5c4=O)ccc3O)cc2)coc2cc(O)cc(O)c12 [NA23063A] | 43.5% | 57.8% | 60.5% | 79.5% | 2100 nM | 100 nM | soluble in lower alcohols, acetone and ethyl acetate, but insoluble in hexane, petroleum ether and water |  |  | 
2 |  | O=c1c(-c2ccc(O)c(-c3cc(-c4coc5cc(O)cc(O)c5c4=O)ccc3O)c2)coc2cc(O)cc(O)c12 [NA23063C] | 57.7% | 66.5% | 77.6% | 83.8% | 1300 nM | 320 nM | soluble in lower alcohols, acetone, ethyl acetate and dimethylsulfoxide, but insoluble in hexane, petroleum ether and water | 26.4% |  | 
3 |  | O=c1c(-c2ccc(O)c(Oc3ccc(-c4coc5cc(O)cc(O)c5c4=O)cc3)c2)coc2cc(O)ccc12 [NA23063B2] | 28.1% | 38.2% | 56.3% | 64.9% | 4900 nM |  | soluble in lower alcohols, acetone, ethyl acetate and dimethylsulfoxide, but insoluble in hexane, petroleum ether and water | 17.5% |  | 
4 |  | O=c1c(-c2ccc(Oc3cc(-c4coc5cc(O)cc(O)c5c4=O)ccc3O)cc2)coc2cc(O)ccc12 [NA23063B1] | 28.1% | 38.2% | 56.3% | 64.9% | 4900 nM |  | soluble in lower alcohols, acetone, ethyl acetate and dimethylsulfoxide, but insoluble in hexane, petroleum ether and water | 17.5% |  | 
5 | soluble | O=c1c(-c2ccc(O)c(-c3cc(-c4coc5cc(O)cc(O)c5c4=O)ccc3O)c2)coc2cc(O)ccc12 [NA23063D] | 30.7% | 34.6% | 44.8% | 61.0% | 7900 nM | 1100 nM | soluble in lower alcohols, acetone, ethyl acetate and dimethylsulfoxide, but insoluble in hexane, petroleum ether and water | 18.9% | 61% | 54%
